In patent publication US11529342B2, “Sorbic and benzoic acid and derivatives thereof enhance the activity of a neuropharmaceutical” (Los Angeles Biomedical Research Institute at Harbor-UCLA …, priority 2009, dated 2022):
“Also recorded” adds a separate entry of the source.

Experiments:
Male 129 SVE adult mice [1] = experiment: Prepulse inhibition (PPI) of acoustic startle, amphetamine disruption; type: in vivo; conditions: for PPI, correction of disruption by amphetamine: sarcosine 200 mg/kg, benzoate 100 mg/kg or both, amphetamine 10 mg/kg 30 minutes before
Source text: (§1) Therefore, to test the hypothesis that combinational NMDA-enhancing agent treatment has better efficacy than individual agent alone, we tested startle habituation and PPI in animals receiving single NMDA-enhancing agents, sarcosine (N-methylglycine, a glycine transporter-1 inhibitor), benzoate (a D-amino acid oxidase inhibitor), the combination of both agents or the vehicle. We also tested the hypothesis in a well accepted pharmacological model of schizophrenia, amphetamine--disruption of startle habituation and PPI.
For the systematic investigation of the neurobiological systems that modulate sensorimotor inhibition, startle magnitude was investigated. Startle magnitude is reduced when the pulse stimulus is preceded 30 to 500 msec by a weak prepulse. This inhibition (“gating”) of a motor response elicited by a weak sensory event, termed PPI, provides an operational measure of sensorimotor gating. Prepulse stimuli of 3, 6, or 12 dB above the 70 dB background noise inhibit the startle response elicited by 120-dB pulse stimuli.
Prestimuli used in intranodal studies of sensorimotor gating of acoustic startle are by the delivery of a discrete acoustic prepulse several msec before the startle pulse, with an intensity below startle threshold. […]
There were a total of 36 trials in the experiments. […] For each mouse the following metrics were determined: 1) Average response magnitude on pulse--only trials 1 to 6 and 32 to 36; 2)Average response magnitude in each of the four trial types between trials 7 and 31 inclusively (i.e., ten pulse-only trials and five each of the three prepulse variations). The first block of pulse-only trials were analyzed as measures of startle reactivity. The first and last blocks of pulse-only trials were analyzed together in a repeated measure ANOVA to assess habituation of acoustic startle across the test session. The […] (3, 6, or 12 dB above background) derived from trials 7 to 31 were used to assess PPI which was calculated for each mouse as: Percentage score: PPI=100%×{[pulse-only units−(prepulse pulse units)]/(pulse-only units)}. […]

Male 129 SVE adult mice [2] = experiment: Acoustic startle habituation in mice, with and without amphetamine disruption; type: in vivo; conditions: for startle habituation, correction of amphetamine-induced disruption: amphetamine 10 mg/kg 30 minutes before the experiment
Source text: as §1
For habituation, we present six trials of a single acoustic stimulus to each mouse. To provide a consistent acoustic environment and to mask external noises, maintain a continuous background noise level of 70 dB within each startle chamber. We collected the peak or average response from each mouse on each of six trials, then averaged the six responses together for each mouse. Five more trials at the end of PPI were done. The results were averaged and compared to the original six trials. The difference of startle responses between the initial six and the last five trials were considered the amount of habituation. Analyses include the independent variable (e.g., vehicle or drug treatment) as a factor in analyses of variance (ANOVA) on the dependent measures (difference of the average of the first and last […]).
There were a total of 36 trials in the experiments. The three prepulse stimuli were with a duration of 20 msec. For each mouse the following metrics were determined: 1) Average response magnitude on pulse--only trials 1 to 6 and 32 to 36; 2)Average response magnitude in each of the four trial types between trials 7 and 31 inclusively (i.e., ten pulse-only trials and five each of the three prepulse variations). The first block of pulse-only trials were analyzed as measures of startle reactivity. The first and last blocks of pulse-only trials were analyzed together in a repeated measure ANOVA to assess habituation of acoustic startle across the test session. The […] (3, 6, or 12 dB above background) derived from trials 7 to 31 were used to assess PPI which was calculated for each mouse as: Percentage score: PPI=100%×{[pulse-only units−(prepulse pulse units)]/(pulse-only units)}.
Male 129 SVE adult mice were first tested at baseline. Four groups of 10 mice each were treated with sarcosine (200 mg/kg), benzoate (100 mg/kg), a combination of both sarcosine and benzoate (same doses as the individual treatment), or with vehicle for one week before the test. The mice continued to receive the drug until one week later when amphetamatine (10 mg/kg) was administered 30 minutes before the experiments.

schizophrenia patients [3] = experiment: 6-week add-on trial in schizophrenia, safety and side-effect assessments; type: in vivo, human; conditions: 6 weeks
Source text: All patients were then randomly assigned under double-blind conditions to receive a 6-week trial of placebo, or sodium benzoate (1 grams) daily. Patients were randomized in clusters of six subjects, without stratification, through a computer-generated randomization table to receive placebo or active drugs in a 1:1 ratio. To ensure concealment of the randomization assignment, study medication was provided in coded containers with supply of identical-appearing capsules of placebo or either of active compounds. The research pharmacist implemented random allocation and masked treatment assignment was communicated by telephone to research staff. Patients, caregivers, and investigators (except for the investigational pharmacist) were all masked to the assignment. Patient's compliance and safety were closely monitored by the research psychiatrists and the inpatient nursing staff.
Side-effect assessments included Simpson-Angus Rating Scale for EPS (6), Abnormal Involuntary Movement Scale (AIMS) for dyskinesia (7), and Barnes Akathesia Scale (8). Systemic side effects of treatments were evaluated by means of routine physical and neurological examinations, laboratory tests, and reviewed by applying the Udvalg for Kliniske Undersogelser (UKU) Side-effects Rating Scale (9).

rats = experiment: Forced swim test (FST); type: in vivo; conditions: 500 mg/kg; for Immobility time (%): 5-min test, vehicle 46.94 ± 4.6; for duration of immobility compared to the vehicle control group: FST
Description: Following acclimation at least 7 days in the animal facility prior to initiation of behavioral testing, the animals (rats) were subjected to the forced swim test (FST). The method of the […] has been used in previous animal studies of depression, which was modified by Cryan from the Porsolt's FST. (Porsolt et al, 1977; Cryan et al, 2002) The test was performed using a acrylic cylinder (diameter, 20 cm; height, 40 cm) filled to a height of 30 cm with 25° C. water. Rats were processed to a 15-min conditioning swim. Following 24 h after their first exposure, the rats were again placed in the swim apparatus for 5 min. The behavior of rats was observed 5 min after the administration of various drug treatments or 0.9% saline (control). All behavioral testing was conducted between 1600-1800 h. On. the study day, the total periods of immobility during the 5-min testing period were recorded using the EthoVision Basic V 3.1 analysis program (Noldus, Wageningen, Netherlands). For the present experiment, the immobility threshold was set at 15% and a fixed averaging interval of 1 second was chosen to smooth the mobility parameter in EthoVision software. Below the immobile threshold, the animal is considered immobile. Using the settings, the activity of all rats was analyzed automatically and quantitatively for mobility and numbers of crossing vertical central line in the FST.

schizophrenia patients [4] = experiment: 6-week randomized double-blind placebo-controlled add-on trial in schizophrenia, efficacy (PANSS, SANS, Quality of Life, GAF); type: in vivo, human; conditions: 1000-mg/day adjunctive to atypical antipsychotics, 6 weeks, n=18 per group
Description: The research protocol was approved by the Institutional Review Boards (IRB) of the institute. Patients were screened and evaluated by the research psychiatrists. After complete description of the study to the subjects, written informed consent was obtained in line with the IRB's guidelines. The Structured Clinical Interview for DSM-IV was conducted for the diagnosis.
The dosing for the concurrent antipsychotics (all atypical antipsychotics), was an optimal dosing strategy which minimize side effects, especially extrapyramidal side effects (EPS), and can still yield favorable efficacy. […]
All patients were then randomly assigned under double-blind conditions to receive a 6-week trial of placebo, or sodium benzoate (1 grams) daily. […] Patient's compliance and safety were closely monitored by the research psychiatrists and the inpatient nursing staff.
The primary outcome measures were psychopathology changes measured by PANSS (3) and, Scales for the Assessment of Negative symptoms (SANS) (4) total scores, Quality of Life scale (10 items for inpatient use) (1, 5), and Global Assessment of Function (Axis V in DSM IV) (2). […]
Clinical ratings were performed by the research psychiatrists who were trained and experienced in the rating scales. Inter-rater reliability was analyzed with the ANOVA test. […]

[5] = mice, sarcosine 200 mg/kg, benzoate 100 mg/kg or both

| SMILES | PPI, correction of disruption by amphetamine (Male 129 SVE adult mice [1]) | startle habituation, correction of amphetamine-induced disruption (Male 129 SVE adult mice [2]; [5]) | Immobility time (%) (rats) | duration of immobility compared to the vehicle control group (rats) | other results |
| --- | --- | --- | --- | --- | --- |
| CC(N)Cc1ccccc1 (stereo not drawn) [amphetamine, reference compound] |  |  |  |  | effect of amphetamine on PPI (Male 129 SVE adult mice [1]; amphetamine 10 mg/kg 30 minutes before the experiments): disrupted the inhibition in all treatments; effect of amphetamine on startle habituation (Male 129 SVE adult mice [2]; mice, amphetamine 10 mg/kg 30 minutes before the experiments): disrupted the habituation |
| CNCC(=O)O [sarcosine, N-methylglycine, reference compound] | partially corrected | combination treatment>benzoate>sarcosine |  |  | startle habituation, correction of amphetamine-induced disruption (Male 129 SVE adult mice [2]; mice, sarcosine 200 mg/kg, benzoate 100 mg/kg or both, listed as NMG): partially correct the deficit; also recorded: only partially corrected the deficit |
| O=C([O-])c1ccccc1.[Na+] [Sodium Benzoate, sodium benzoate] | partially corrected | partially correct the deficit; also recorded: better than sarcosine and close to effect seen in the combination treatment; also recorded: only partially corrected the deficit; also recorded: better than sarcosine and close to that seen in the combination treatment | 40.17 ± 3.3 | decrease the duration of immobility significantly | safety and tolerability (schizophrenia patients [3]; adjunctive therapy): good safety and tolerability; treatment-emergent side effects (schizophrenia patients [3]; benzoate versus placebo): all mild, short-lived, and not warranting medical treatment; positive and negative symptoms and quality of life versus placebo (schizophrenia patients [4]): significantly improve positive and negative symptoms and quality of life than placebo; startle habituation (difference of startle responses between initial and last trials) (Male 129 SVE adult mice [2]; mice treated one week, sarcosine 200 mg/kg, benzoate 100 mg/kg or both, no amphetamine): close to the effect seen in the combination treatment |
| C/C=C/C=C/C(=O)[O-].[K+] [Potassium Sorbate, potassium sorbate] |  |  | 27.64 ± 6.2 | decrease the duration of immobility significantly |  |
